Assay results reported in ChEMBL document CHEMBL1201862, “PubChem BioAssay data set” (2004).
Activity calls are given as the source filed them.

Key:
[1] = biological target: T1, Replicative DNA helicase DnaB (Mycobacterium tuberculosis, UniProt P9WMR3); test: DnaB intein splicing inhibitors, dose response, biochemical, cell-free fluorescence (AID 449749); type: functional
T1 sequence (P9WMR3 whole entry): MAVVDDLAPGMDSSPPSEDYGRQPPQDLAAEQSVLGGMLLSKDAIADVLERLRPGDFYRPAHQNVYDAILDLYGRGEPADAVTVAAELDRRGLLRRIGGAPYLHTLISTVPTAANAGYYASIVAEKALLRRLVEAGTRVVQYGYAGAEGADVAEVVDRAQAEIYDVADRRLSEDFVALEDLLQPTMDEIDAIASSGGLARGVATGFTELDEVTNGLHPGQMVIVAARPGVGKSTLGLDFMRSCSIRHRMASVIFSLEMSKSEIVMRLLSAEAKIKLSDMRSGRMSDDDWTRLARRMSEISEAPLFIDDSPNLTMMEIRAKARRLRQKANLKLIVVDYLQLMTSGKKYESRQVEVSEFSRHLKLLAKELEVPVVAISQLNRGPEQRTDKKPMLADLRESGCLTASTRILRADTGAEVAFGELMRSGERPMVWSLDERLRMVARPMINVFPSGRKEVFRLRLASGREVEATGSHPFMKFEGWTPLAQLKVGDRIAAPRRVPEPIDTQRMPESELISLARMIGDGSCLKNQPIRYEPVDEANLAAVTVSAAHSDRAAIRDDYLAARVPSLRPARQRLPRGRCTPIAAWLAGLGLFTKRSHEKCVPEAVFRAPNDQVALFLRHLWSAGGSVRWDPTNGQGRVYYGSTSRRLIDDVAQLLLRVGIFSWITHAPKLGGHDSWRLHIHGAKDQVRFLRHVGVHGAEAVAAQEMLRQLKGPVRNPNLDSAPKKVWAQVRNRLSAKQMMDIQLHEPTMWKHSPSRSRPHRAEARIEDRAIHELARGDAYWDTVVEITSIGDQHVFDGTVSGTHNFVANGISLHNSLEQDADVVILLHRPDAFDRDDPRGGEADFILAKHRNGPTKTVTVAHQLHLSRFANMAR

[2] = biological target: T2, Caspase-3 (Homo sapiens, UniProt P42574); test: Dose-response confirmation of uHTS inhibitor hits of Sentrin-Specific Protease 8 in a Caspase-3 Fluorescence assay.; type: functional
T2 sequence (P42574 whole entry): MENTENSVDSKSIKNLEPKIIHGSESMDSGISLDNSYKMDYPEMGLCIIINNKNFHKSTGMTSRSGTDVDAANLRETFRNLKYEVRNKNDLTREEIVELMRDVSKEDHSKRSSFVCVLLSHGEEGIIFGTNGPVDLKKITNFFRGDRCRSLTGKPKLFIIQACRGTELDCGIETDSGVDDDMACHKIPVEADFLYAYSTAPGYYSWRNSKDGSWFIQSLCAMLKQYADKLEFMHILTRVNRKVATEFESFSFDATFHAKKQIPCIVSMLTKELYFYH

[3] = biological target: T3, Sentrin-specific protease 8 (Homo sapiens, UniProt Q96LD8); type: functional
T3 sequence (Q96LD8 whole entry): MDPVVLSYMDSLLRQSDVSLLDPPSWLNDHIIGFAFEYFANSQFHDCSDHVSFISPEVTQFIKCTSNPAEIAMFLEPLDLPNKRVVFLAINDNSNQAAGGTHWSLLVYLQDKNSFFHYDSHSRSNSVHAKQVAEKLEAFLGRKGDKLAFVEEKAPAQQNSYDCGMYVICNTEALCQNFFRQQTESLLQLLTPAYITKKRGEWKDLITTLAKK

[4] = biological target: T4, Protein RecA (Mycobacterium tuberculosis, UniProt P9WHJ3); test: Fluorescence Cell-Free Homogeneous Dose Retest to Identify Inhibitors of RecA-Intein Splicing Activity. [Related pubchem assays (depositor defined):AID2097, AID2223, AID489010, AID492950]; type: functional
T4 sequence (P9WHJ3 whole entry): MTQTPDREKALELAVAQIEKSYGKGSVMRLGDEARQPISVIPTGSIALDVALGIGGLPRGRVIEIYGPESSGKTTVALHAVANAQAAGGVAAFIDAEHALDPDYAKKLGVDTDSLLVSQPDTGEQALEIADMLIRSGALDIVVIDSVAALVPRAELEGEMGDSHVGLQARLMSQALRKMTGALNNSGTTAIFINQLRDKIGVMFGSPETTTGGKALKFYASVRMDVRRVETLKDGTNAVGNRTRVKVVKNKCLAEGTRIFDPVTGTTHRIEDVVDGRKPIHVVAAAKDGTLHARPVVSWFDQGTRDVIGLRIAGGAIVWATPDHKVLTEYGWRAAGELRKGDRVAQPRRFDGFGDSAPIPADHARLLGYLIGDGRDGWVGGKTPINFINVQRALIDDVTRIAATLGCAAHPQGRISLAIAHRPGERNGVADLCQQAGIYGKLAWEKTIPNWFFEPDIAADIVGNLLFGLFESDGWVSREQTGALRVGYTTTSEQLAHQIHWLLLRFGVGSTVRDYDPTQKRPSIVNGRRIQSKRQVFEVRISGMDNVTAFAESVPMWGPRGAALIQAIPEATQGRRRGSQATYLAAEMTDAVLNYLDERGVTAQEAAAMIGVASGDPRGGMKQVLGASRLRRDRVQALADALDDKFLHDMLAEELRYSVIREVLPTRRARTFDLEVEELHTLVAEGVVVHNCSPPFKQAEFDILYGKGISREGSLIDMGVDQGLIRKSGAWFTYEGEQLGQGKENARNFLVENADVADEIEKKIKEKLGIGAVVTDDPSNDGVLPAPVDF

[5] = biological target: T3, Sentrin-specific protease 8; type: functional; remark: listed apart in the source
[6] = viability of uninfected HEp-2 cells – cell-based, HTS, cytotoxicity control for RSV inhibitor project, dose response (AID 2410); type: functional; details: human respiratory syncytial virus
[7] = biological target: Endoplasmic reticulum aminopeptidase 1 (Homo sapiens, UniProt Q9NZ08); test: inhibition of human ERAP1 enzyme activity – biochemical, cherry-pick, set 2, plate reader, dose response (AID 743314)
Sequence of Endoplasmic reticulum aminopeptidase 1 (Q9NZ08 whole entry): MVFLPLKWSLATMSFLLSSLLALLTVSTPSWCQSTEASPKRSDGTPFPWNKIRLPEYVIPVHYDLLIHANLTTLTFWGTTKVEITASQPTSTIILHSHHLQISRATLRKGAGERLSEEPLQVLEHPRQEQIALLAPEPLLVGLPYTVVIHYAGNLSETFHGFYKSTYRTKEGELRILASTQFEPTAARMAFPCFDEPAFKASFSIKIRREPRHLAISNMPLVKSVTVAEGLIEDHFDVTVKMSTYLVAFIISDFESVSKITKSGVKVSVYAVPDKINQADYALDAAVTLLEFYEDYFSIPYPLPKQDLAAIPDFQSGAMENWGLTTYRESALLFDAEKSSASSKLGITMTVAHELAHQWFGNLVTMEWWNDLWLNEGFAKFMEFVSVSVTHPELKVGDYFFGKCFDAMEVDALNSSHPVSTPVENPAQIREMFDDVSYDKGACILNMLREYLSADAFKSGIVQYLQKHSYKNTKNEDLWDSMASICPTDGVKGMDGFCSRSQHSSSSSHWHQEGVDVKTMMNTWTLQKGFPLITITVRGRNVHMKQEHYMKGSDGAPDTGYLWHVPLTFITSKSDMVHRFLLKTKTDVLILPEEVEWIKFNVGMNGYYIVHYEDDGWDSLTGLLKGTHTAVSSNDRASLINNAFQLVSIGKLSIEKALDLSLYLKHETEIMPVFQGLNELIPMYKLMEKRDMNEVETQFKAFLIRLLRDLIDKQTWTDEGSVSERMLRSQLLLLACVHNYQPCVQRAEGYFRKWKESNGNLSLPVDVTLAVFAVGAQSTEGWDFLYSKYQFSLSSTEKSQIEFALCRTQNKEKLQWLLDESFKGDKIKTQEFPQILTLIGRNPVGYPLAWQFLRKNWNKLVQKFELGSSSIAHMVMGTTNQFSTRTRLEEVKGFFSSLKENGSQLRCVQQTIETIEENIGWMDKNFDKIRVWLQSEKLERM

[8] = biological target: Major prion protein (Homo sapiens, UniProt P04156); type: functional, cell-based
[9] = cells
[10] = biological target: T5, Beta-lactamase (Pseudomonas aeruginosa, UniProt Q79MP6); test: inhibition of IMP-1 beta-lactamase activity – biochemical, epi-absorbance, selectivity assay for VIM-2 inhibitor project, dose response (AID 1920)
T5 sequence (Q79MP6 whole entry): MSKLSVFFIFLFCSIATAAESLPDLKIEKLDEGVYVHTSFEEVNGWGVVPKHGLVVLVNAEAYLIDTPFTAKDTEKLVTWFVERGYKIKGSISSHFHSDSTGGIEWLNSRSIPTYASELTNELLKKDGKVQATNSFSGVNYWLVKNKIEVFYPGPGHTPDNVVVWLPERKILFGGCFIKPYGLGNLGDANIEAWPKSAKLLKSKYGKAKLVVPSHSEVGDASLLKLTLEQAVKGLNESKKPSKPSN

[11] = biological target: T6, High affinity choline transporter 1 (Homo sapiens, UniProt Q9GZV3); test: human choline transporter blockers, potency – cell-based, 10-point CRC, membrane potential dye, dose response (AID 588401); type: functional;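 note: membrane potential dye fluorescence of choline-evoked depolarization via CHT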
T6 sequence (Q9GZV3 whole entry): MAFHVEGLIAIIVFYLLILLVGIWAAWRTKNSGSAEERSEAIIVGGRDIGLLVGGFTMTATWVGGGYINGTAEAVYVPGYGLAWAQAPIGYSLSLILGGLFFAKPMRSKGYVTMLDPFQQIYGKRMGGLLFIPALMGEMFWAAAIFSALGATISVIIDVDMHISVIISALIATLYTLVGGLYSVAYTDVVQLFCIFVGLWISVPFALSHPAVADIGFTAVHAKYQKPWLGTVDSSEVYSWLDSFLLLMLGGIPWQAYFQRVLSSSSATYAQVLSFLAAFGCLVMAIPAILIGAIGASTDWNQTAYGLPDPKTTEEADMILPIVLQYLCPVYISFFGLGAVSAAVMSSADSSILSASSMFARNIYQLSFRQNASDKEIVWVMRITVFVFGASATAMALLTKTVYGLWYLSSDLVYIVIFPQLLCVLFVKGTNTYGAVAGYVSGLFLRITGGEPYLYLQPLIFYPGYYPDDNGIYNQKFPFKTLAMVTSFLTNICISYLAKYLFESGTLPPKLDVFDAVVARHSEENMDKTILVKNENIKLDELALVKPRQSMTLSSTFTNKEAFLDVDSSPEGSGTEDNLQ

[12] = biological target: T5, Beta-lactamase; test: […] counterscreen for selective VIM-2 inhibitors: dose response biochemical high throughput screening assay to identify inhibitors of IMP-1 metallo-beta-lactamase.
[13] = biological target: T6, High affinity choline transporter 1; test: human choline transporter blockers, potency – cell-based, 5-point CRC, membrane potential dye, dose response (AID 504840); type: functional
[14] = biological target: T7, Estrogen receptor (Homo sapiens, UniProt P03372);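 note: potency for inhibiting coactivator peptide recruitment to the receptor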
T7 sequence (P03372 whole entry): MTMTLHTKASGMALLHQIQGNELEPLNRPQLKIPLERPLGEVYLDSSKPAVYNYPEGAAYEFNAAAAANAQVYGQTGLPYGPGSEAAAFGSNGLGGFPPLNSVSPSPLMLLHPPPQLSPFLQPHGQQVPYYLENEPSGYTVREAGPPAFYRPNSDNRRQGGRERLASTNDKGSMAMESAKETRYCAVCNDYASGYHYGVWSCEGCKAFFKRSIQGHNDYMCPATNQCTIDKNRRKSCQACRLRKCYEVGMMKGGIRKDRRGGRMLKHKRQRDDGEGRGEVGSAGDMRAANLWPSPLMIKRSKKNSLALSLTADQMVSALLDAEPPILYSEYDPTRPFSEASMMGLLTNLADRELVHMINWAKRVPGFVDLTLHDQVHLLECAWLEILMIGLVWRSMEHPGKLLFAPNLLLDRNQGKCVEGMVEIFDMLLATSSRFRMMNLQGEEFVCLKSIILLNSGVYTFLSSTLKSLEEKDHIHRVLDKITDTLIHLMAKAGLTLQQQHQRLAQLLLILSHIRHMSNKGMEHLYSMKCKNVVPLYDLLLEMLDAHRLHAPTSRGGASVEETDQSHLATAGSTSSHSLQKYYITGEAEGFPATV

[15] = biological target: Beta-lactamase (Salmonella choleraesuis (strain SC-B67), UniProt Q5J463); test: Epi-absorbance-based counterscreen for selective VIM-2 inhibitors: dose response biochemical high throughput screening assay to identify inhibitors of TEM-1 serine-beta-lactamase.
Sequence of Beta-lactamase (Salmonella choleraesuis (strain SC-B67), UniProt Q5J463) (Q5J463 whole entry): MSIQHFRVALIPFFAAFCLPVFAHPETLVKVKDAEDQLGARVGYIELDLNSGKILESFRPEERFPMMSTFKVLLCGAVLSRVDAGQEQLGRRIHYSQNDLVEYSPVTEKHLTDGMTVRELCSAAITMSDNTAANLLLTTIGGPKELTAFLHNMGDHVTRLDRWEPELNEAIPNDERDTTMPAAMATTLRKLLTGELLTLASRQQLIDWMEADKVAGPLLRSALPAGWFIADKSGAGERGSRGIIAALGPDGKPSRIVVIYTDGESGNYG

[16] = activation of miR-122 Renilla sensor silencing – cell-based, Huh7 psiCHECK-miR122, Renilla luciferase, cherry-picked, dose response (AID 651956); type: functional;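 note: huh7 hepatoma cells stably carrying a psiCHECK-2 miR-122 sensor plasmid; renilla luciferase signal reporting endogenous miR-122 activity after 48 h compound exposure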
[17] = general mammalian cell viability loss – activator set, cherry-pick, cytotoxicity control for miR-122 modulator project, dose response (AID 720690); type: functional, cell-based;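 note: HEK293T human cells scored for general mammalian cytotoxicity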
[18] = cells; type: functional, cell-based
[19] = cells; type: functional, cell-based; remark: listed apart in the source
[20] = biological target: T8, Trace amine-associated receptor 1 (Homo sapiens, UniProt Q96RJ0); test: Counterscreen for agonists of the human trace amine associated receptor 1 (hTAAR1): Fluorescence-based cell-based high throughput dose response assay to identify hTAAR1 agonist that also desensitize TAAR1 receptor response.; type: functional
T8 sequence (Q96RJ0 whole entry): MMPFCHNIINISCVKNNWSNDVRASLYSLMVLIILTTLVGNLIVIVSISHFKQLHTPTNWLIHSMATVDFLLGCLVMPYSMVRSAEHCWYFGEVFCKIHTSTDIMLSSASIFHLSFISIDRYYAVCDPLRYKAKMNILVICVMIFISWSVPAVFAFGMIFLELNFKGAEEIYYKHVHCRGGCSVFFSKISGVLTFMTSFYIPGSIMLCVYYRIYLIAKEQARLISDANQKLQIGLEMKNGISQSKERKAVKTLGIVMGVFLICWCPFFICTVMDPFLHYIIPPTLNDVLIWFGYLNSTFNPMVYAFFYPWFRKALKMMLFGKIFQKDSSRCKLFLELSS

[21] = biological target: T8, Trace amine-associated receptor 1; test: Fluorescence-based cell-based high throughput dose response assay to identify agonists of the human trace amine associated receptor 1 (TAAR1).; type: functional
[22] = cells; type: functional, cell-based; details: HEK-CNG
[23] = biological target: Galanin receptor type 3 (Homo sapiens, UniProt O60755); test: Fluorescence-based cell-based primary high throughput dose response assay to identify antagonists of the Galanin Receptor 3 (GalR3).; type: functional
Sequence of Galanin receptor type 3 (O60755 whole entry): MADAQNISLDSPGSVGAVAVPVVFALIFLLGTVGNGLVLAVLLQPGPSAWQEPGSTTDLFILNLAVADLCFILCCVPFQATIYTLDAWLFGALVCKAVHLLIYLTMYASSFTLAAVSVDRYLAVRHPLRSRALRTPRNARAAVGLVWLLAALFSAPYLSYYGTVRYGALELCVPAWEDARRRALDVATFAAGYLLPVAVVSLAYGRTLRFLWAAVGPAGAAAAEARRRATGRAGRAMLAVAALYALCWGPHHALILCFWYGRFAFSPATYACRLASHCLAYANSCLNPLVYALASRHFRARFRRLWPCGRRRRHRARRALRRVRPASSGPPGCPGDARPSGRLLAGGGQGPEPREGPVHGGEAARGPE

[24] = A Cell-Based Confirmatory Screen for Compounds that Inhibit VEEV, TC-83 (7).; type: functional
[25] = biological target: Potassium channel subfamily K member 9 (Homo sapiens, UniProt Q9NPC2); test: KCNK9 flux blockade, concentration-response – cell-based, FluxOR thallium flux, selectivity assay for TASK1 inhibitor project, SAR follow-up (AID 652211); type: functional;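 note: potency is for inhibitors of the channel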
Sequence of Potassium channel subfamily K member 9 (Q9NPC2 whole entry): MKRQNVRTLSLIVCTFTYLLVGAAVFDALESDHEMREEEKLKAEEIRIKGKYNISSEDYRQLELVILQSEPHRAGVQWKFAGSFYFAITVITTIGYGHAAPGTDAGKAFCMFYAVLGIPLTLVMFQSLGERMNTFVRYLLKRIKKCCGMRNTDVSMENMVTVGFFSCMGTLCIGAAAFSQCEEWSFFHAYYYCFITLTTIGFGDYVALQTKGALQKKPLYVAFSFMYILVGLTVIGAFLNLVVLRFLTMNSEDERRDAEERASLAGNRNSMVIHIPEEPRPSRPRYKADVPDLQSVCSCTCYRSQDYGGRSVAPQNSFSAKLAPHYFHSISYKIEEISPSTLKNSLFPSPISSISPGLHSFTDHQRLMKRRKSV

[26] = biological target: Potassium channel subfamily K member 3 (Homo sapiens, UniProt O14649); test: inhibition of human KCNK3 channel flux – CHO cells, FluxOR thallium flux, SAR follow-up (AID 652212); type: functional
Sequence of Potassium channel subfamily K member 3 (O14649 whole entry): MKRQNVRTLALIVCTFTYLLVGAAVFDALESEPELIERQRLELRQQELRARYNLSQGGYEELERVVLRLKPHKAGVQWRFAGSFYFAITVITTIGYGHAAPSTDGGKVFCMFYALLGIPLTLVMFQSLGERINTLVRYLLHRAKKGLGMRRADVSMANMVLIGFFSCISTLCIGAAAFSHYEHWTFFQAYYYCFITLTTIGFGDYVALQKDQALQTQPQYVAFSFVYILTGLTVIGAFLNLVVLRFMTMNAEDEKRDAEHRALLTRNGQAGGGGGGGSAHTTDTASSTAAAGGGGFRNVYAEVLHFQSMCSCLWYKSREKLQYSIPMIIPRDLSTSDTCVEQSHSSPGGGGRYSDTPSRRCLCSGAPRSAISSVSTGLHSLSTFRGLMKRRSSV

[27] = biological target: Potassium voltage-gated channel subfamily KQT member 2 (Rattus norvegicus, UniProt O88943); test: block of rat KCNQ2 potassium channel – cell-based, FluxOR thallium flux, concentration-response, selectivity assay for TASK1 inhibitor project, SAR follow-up (AID 652192); type: functional
Sequence of Potassium voltage-gated channel subfamily KQT member 2 (O88943 whole entry): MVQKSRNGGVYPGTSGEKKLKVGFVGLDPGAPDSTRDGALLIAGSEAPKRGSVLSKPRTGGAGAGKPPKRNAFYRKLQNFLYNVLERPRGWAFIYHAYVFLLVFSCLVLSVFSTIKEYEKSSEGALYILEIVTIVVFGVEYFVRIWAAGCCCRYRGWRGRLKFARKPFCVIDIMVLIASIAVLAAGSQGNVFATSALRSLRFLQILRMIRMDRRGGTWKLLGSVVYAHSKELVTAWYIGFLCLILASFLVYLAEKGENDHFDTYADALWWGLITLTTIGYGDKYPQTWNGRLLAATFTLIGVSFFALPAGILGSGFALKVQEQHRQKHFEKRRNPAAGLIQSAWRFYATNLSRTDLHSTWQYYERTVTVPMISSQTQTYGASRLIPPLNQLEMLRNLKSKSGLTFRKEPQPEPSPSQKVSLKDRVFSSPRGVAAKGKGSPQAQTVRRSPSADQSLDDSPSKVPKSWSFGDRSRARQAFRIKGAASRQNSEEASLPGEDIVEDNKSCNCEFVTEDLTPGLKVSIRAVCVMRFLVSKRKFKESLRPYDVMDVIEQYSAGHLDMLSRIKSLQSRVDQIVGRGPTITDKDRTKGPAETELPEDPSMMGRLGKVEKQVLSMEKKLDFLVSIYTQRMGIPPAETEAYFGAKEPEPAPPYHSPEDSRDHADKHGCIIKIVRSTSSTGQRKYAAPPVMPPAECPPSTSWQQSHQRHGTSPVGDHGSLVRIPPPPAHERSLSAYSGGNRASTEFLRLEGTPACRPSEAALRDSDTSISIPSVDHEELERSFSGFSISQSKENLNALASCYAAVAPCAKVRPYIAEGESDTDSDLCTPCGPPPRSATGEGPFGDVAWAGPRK

[28] = Late stage assay provider results from the probe development effort to identify selective inhibitors of heat shock protein 90 (HSP90): Absorbance-based cell proliferation assay in SKBR3 cells.; type: functional; details: SK-BR-3
[29] = Late stage assay provider results from the probe development effort to identify selective inhibitors of heat shock protein 90 (HSP90): Absorbance-based cell proliferation assay in MCF7 cells.; type: functional

Compound: COc1ccc(-c2csc(CCN3N=C(C)CC3=O)n2)cc1
- AC50 [1]: 3.27 µM (active)
- IC50 [2]: 100 µM (inactive)
- IC50 [3]: 12.1 µM (active)
- EC50 [4]: 1.54 µM (active)
- IC50 [5]: 14.6 µM (active)

Compound: COc1ccc(-c2cc3ccc(O)cc3oc2=O)cc1
- CC50 [6]: 49.4 µM (active)
- AC50 [7]: 3.06 µM (active)

Compound: COc1ccc(/C=C\C(=O)NCc2ccc3c(c2)cc(C)n3C)cc1OC
- IC50 [8]: 40.3 µM (inactive)
- IC50 [9]: > 138 µM (inactive)

Compound: Cn1ccnc1SCC(=O)Nc1ccc2nc(SCC(=O)NC3CC3)sc2c1
- IC50 [10]: > 59.6 µM (inactive)
- IC50 [11]: 0.843 µM (active)
- IC50 [12]: > 59.6 µM (inactive)
- IC50 [13]: 4.29 µM (active)
- IC50 [14]: 25.7 µM (active)
- IC50 [15]: > 59.6 µM (inactive)

Compound: C[C@@H]1CCCCO[C@H](CN(C)CC2CCCCC2)[C@H](C)CN([C@@H](C)CO)C(=O)c2cc(NC(=O)Nc3ccc(C(F)(F)F)cc3)ccc2O1
- AC50 [16]: 2.85 µM (active)
- AC50 [17]: 4.83 µM (active)

Compound: CC(C)[C@H](NC(=O)C1CCCC1)C(=O)N1CCC[C@H]1C(=O)NCCc1ccccc1Cl
- IC50 [18]: > 29.9 µM (inactive)
- EC50 [19]: > 29.9 µM (inactive)
- IC50 [20]: 3.8 µM (active)
- EC50 [21]: 0.897 µM (active)

Compound: Cc1cc(Br)cn2c(Cc3ccccc3C(F)(F)F)c(-c3ccco3)nc12
- EC50 [22]: > 29.9 µM (inactive)
- IC50 [23]: 14.5 µM (inactive)

Compound: CN1CCN(C)/C(=N/c2ccc([N+](=O)[O-])cc2C(=O)Nc2ccccc2F)C1
- IC50 [24]: 0.15 µM (active)

Compound: COc1cnccc1C(=O)Nc1cccc(NC(=O)c2cccc(C)c2)c1
- IC50 [25]: 2.43 µM (active)
- IC50 [26]: 0.18 µM (active)
- IC50 [27]: 7.58 µM (active)

Compound: Cc1c(N/C=C2/C=C(Br)C(=O)OC2=O)c(=O)n(-c2ccccc2)n1C
- IC50 [28]: 16 µM (inactive)
- IC50 [29]: 3 µM (active)
